Drawing on US4424358A, “β-3-Amino nor-tropane compounds” (Delalande S.A., priority 1979, dated 1984), this text covers ED50 and LD50 for 41 compounds.

Read-outs that look alike come from different tables or passages of the source.

For series [1], the system named is apomorphine straightening. The series can be described thus: antagonism to apomorphine straightening (neuroleptic activity). To be noted: Mus musculus, ip, read-out: Apomorphine straightening ED 50. In kind it is in vivo, mice.
A short description of series [2]: acute toxicity by intraperitoneal administration. As to conditions: mouse, in vivo, ip; mice, i.p., estimated lethal dose (method of Miller); read-out: Acute toxicity LD 50. An excerpt:
Acute toxicity was studied on mice by intraperitoneal administration, and the estimated lethal doses in accordance with the method described by MILLER and THINTER Proc. Soc. Exper.

As to `CCOc1nc(N)ncc1C(=O)N[C@@H]1C[C@H]2CC[C@@H](C1)N2Cc1ccccc1` [Compound 3], the ED50 in series [1] is 0.04 mg/kg. Also, the LD50 in series [2] is 300 mg/kg. Consider `COc1nc(N)ncc1C(=O)N[C@@H]1C[C@H]2CC[C@@H](C1)N2Cc1ccc(Cl)cc1` [Compound 8, β-3-[5-(2-amino 4-methoxypyrimidinyl)carbonyl]amino N-parachlorobenzyl nor-tropane], for which, in series [1], the ED50 is 0.035 mg/kg. Besides, the LD50 in series [2] is 220 mg/kg. `COc1ccc(CN2[C@@H]3CC[C@H]2C[C@H](NC(=O)c2cnc(N)nc2OC)C3)cc1` [Compound 9]: the ED50 in series [1] came to 0.01 mg/kg. Moreover, in series [2], the LD50 is 240 mg/kg. As to `COc1nc(N)ncc1C(=O)N[C@@H]1C[C@H]2CC[C@@H](C1)N2Cc1ccc(C)cc1` [Compound 10], the ED50 in series [1] was 0.035 mg/kg. For the same compound, the LD50 in series [2] is 325 mg/kg. Consider `COc1cc(N)c(Br)cc1C(=O)N[C@@H]1C[C@H]2CC[C@@H](C1)N2Cc1ccccc1` [Compound 16], for which, in series [1], the ED50 was determined as 0.01 mg/kg. Further, in series [2], the LD50 is 240 mg/kg. With `COc1cc(N)c(Br)cc1C(=O)N[C@@H]1C[C@H]2CC[C@@H](C1)N2Cc1ccc(F)cc1` [Compound 19, β-3-[(4-amino 5-bromo 2-methoxy)benzoyl]amino N-parafluorobenzyl nor-tropane, chlorhydrate], the ED50 in series [1] came to 0.01 mg/kg. Further, the LD50 in series [2] is 90 mg/kg. Taken in the same sequence, the figures for `COc1cc(N)c(Br)cc1C(=O)N[C@@H]1C[C@H]2CC[C@@H](C1)N2Cc1ccc(Br)cc1` [Compound 20] were 0.034 mg/kg and > 400 mg/kg. The corresponding values for `COc1cc(N)c(Br)cc1C(=O)N[C@@H]1C[C@H]2CC[C@@H](C1)N2Cc1cccc(C(F)(F)F)c1` [Compound 21] are 0.07 mg/kg and 85 mg/kg. `COc1cc(N)c(Br)cc1C(=O)N[C@@H]1C[C@H]2CC[C@@H](C1)N2Cc1ccc(Cl)cc1` [Compound 22]: the ED50 in series [1] came to 0.021 mg/kg. Further, the LD50 in series [2] is 140 mg/kg. Taken in the same sequence, the figures for `COc1cc(N)c(Br)cc1C(=O)N[C@@H]1C[C@H]2CC[C@@H](C1)N2Cc1ccc(C)cc1` [Compound 23] were 0.07 mg/kg and > 400 mg/kg. `COc1cc(N)c(Br)cc1C(=O)N[C@@H]1C[C@H]2CC[C@@H](C1)N2Cc1cccc(C)c1` [Compound 24]: the ED50 in series [1] is 0.05 mg/kg. Moreover, the LD50 in series [2] is 160 mg/kg. Consider `COc1cc(N)c(Br)cc1C(=O)N[C@@H]1C[C@H]2CC[C@@H](C1)N2Cc1cccc(Cl)c1` [Compound 25], for which the ED50 in series [1] came to 0.03 mg/kg. The LD50 in series [2] is 100 mg/kg.

Turning to `COc1cc(N)c(Br)cc1C(=O)N[C@@H]1C[C@H]2CC[C@@H](C1)N2Cc1cccc(F)c1` [Compound 26], in series [1], the ED50 is 0.011 mg/kg. The LD50 in series [2] was 140 mg/kg. With `COc1cc(N)c(Br)cc1C(=O)N[C@@H]1C[C@H]2CC[C@@H](C1)N2Cc1cccc(Br)c1` [Compound 27], in series [1], the ED50 worked out at 0.034 mg/kg. Also, in series [2], the LD50 is > 400 mg/kg.

As to `COc1cc(N)c(Br)cc1C(=O)N[C@@H]1C[C@H]2CC[C@@H](C1)N2Cc1ccc(Cl)c(Cl)c1` [Compound 28], the ED50 in series [1] came to 0.12 mg/kg. Further, in series [2], the LD50 was > 400 mg/kg. Consider `COc1cc(N)c(Br)cc1C(=O)N[C@@H]1C[C@H]2CC[C@@H](C1)N2Cc1cccs1` [Compound 29], for which, in series [1], the ED50 was 0.012 mg/kg. Moreover, the LD50 in series [2] was 180 mg/kg. Taken in the same sequence, the figures for `CCc1ccc(CN2[C@@H]3CC[C@H]2C[C@H](NC(=O)c2cc(Br)c(N)cc2OC)C3)cc1` [Compound 30] were 0.3 mg/kg and 230 mg/kg. Taken in the same sequence, the figures for `COc1cc(N)c(Br)cc1C(=O)N[C@@H]1C[C@H]2CC[C@@H](C1)N2Cc1ccsc1` [Compound 32] were 0.05 mg/kg and 140 mg/kg. For `COc1cc(N)c(Br)cc1C(=O)N[C@@H]1C[C@H]2CC[C@@H](C1)N2Cc1ccc(C(F)(F)F)cc1` [Compound 33], in series [1], the ED50 came out at 0.19 mg/kg. Moreover, in series [2], the LD50 is > 400 mg/kg.

On to `COc1cc(N)c(Br)cc1C(=O)N[C@@H]1C[C@H]2CC[C@@H](C1)N2CC1CCCCC1` [Compound 35], for which the ED50 in series [1] came out at 0.07 mg/kg. Further, the LD50 in series [2] is 80 mg/kg. Regarding `COc1nc(N)ncc1C(=O)N[C@@H]1C[C@H]2CC[C@@H](C1)N2Cc1ccc(Br)cc1` [Compound 37], the ED50 in series [1] stood at 0.16 mg/kg. Further, the LD50 in series [2] is 170 mg/kg. For `COc1cc(NC(C)=O)c(Br)cc1C(=O)N[C@@H]1C[C@H]2CC[C@@H](C1)N2Cc1ccccc1` [Compound 40], the ED50 in series [1] worked out at 0.05 mg/kg. In addition, in series [2], the LD50 was 130 mg/kg. As for `COc1cc(NC(=O)C(F)(F)F)c(Br)cc1C(=O)N[C@@H]1C[C@H]2CC[C@@H](C1)N2Cc1ccccc1` [Compound 41], in series [1], the ED50 was found to be 0.03 mg/kg. Further, the LD50 in series [2] is 225 mg/kg. For the compound `COc1cc(NC(C)=O)c(Cl)cc1C(=O)N[C@@H]1C[C@H]2CC[C@@H](C1)N2Cc1ccccc1` [Compound 42], the ED50 in series [1] came out at 0.05 mg/kg. The LD50 in series [2] is 61 mg/kg. On to `COc1cc(NC(=O)C(F)(F)F)c(Cl)cc1C(=O)N[C@@H]1C[C@H]2CC[C@@H](C1)N2Cc1ccccc1` [Compound 43], for which, in series [1], the ED50 stood at 0.03 mg/kg. Moreover, the LD50 in series [2] is 120 mg/kg. On to `COc1ccc([N+](=O)[O-])cc1C(=O)N[C@@H]1C[C@H]2CC[C@@H](C1)N2Cc1ccccc1` [Compound 48], for which the ED50 in series [1] amounted to 0.21 mg/kg. In series [2], the LD50 was 310 mg/kg. With `COc1ccc(F)cc1C(=O)N[C@@H]1C[C@H]2CC[C@@H](C1)N2Cc1ccccc1` [Compound 49], the ED50 in series [1] was 0.08 mg/kg. Moreover, the LD50 in series [2] was 120 mg/kg. Regarding `COc1ccc(O)cc1C(=O)N[C@@H]1C[C@H]2CC[C@@H](C1)N2Cc1ccccc1` [Compound 51], in series [1], the ED50 came out at 0.03 mg/kg. Also, the LD50 in series [2] is 140 mg/kg.

As for `COc1cc(OC)c(C(=O)N[C@@H]2C[C@H]3CC[C@@H](C2)N3Cc2ccccc2)cc1OC` [Compound 60], in series [1], the ED50 turned out to be 0.027 mg/kg. Also, the LD50 in series [2] is 75 mg/kg. Regarding `COc1ccc(C(=O)N[C@@H]2C[C@H]3CC[C@@H](C2)N3Cc2ccccc2)c(OC)c1OC` [Compound 61], in series [1], the ED50 came out at 0.02 mg/kg. Besides, in series [2], the LD50 is 80 mg/kg. Regarding `COc1ccccc1C(=O)N[C@@H]1C[C@H]2CC[C@@H](C1)N2Cc1ccccc1` [Compound 62], in series [1], the ED50 was 0.04 mg/kg. Besides, the LD50 in series [2] was 60 mg/kg. On to `COc1cccc(C(=O)N[C@@H]2C[C@H]3CC[C@@H](C2)N3Cc2ccccc2)c1OC` [Compound 64], for which the ED50 in series [1] was determined as 0.008 mg/kg. For the same compound, in series [2], the LD50 was 83 mg/kg. Taken in the same sequence, the figures for `COc1cc(N)ccc1C(=O)N[C@@H]1C[C@H]2CC[C@@H](C1)N2Cc1ccccc1` [Compound 67] were 0.038 mg/kg and 100 mg/kg. `COc1ccc(C(=O)N[C@@H]2C[C@H]3CC[C@@H](C2)N3Cc2ccccc2)c(OC)c1` [Compound 68]: the ED50 in series [1] was 0.02 mg/kg. In addition, the LD50 in series [2] is 47 mg/kg. Take `COc1cc(N)c(Cl)cc1C(=O)N[C@@H]1C[C@H]2CC[C@@H](C1)N2Cc1ccco1` [Compound 71]: the ED50 in series [1] came out at 0.11 mg/kg. In addition, the LD50 in series [2] is 120 mg/kg.

As to `COc1cc(N)c(Cl)cc1C(=O)N[C@@H]1C[C@H]2CC[C@@H](C1)N2Cc1ccsc1` [Compound 72], the ED50 in series [1] is 0.04 mg/kg. For the same compound, in series [2], the LD50 is 110 mg/kg. For the compound `COc1cc(N)c(Cl)cc1C(=O)N[C@@H]1C[C@H]2CC[C@@H](C1)N2Cc1cccs1` [Compound 73], the ED50 in series [1] is 0.02 mg/kg. For the same compound, in series [2], the LD50 is 170 mg/kg.

Regarding `COc1c(C(=O)N[C@@H]2C[C@H]3CC[C@@H](C2)N3Cc2ccccc2)cc(Br)c(N)c1Br` [Compound 74], the ED50 in series [1] turned out to be 0.035 mg/kg. For the same compound, the LD50 in series [2] is 250 mg/kg. Regarding `CCOc1cc(N)c(Br)cc1C(=O)N[C@@H]1C[C@H]2CC[C@@H](C1)N2Cc1ccccc1` [Compound 75], the ED50 in series [1] came out at 0.021 mg/kg. The LD50 in series [2] was > 400 mg/kg. In the case of `COc1cc(OC)cc(C(=O)N[C@@H]2C[C@H]3CC[C@@H](C2)N3Cc2ccccc2)c1` [Compound 83], the ED50 in series [1] stood at 0.031 mg/kg. In addition, the LD50 in series [2] was 140 mg/kg. Turning to `CCN1CCCC1CNC(=O)c1cc(S(N)(=O)=O)ccc1OC` (stereo not drawn) [SULPIRIDE, reference compound], the ED50 in series [1] (mice, i.p.) is 37 mg/kg.
